This is an account of results in ChEMBL document CHEMBL1133433, “Synthesis of a novel class of cdc25A inhibitors from vitamin D3” (Bioorg Med Chem Lett, 2000).

Experiment [1] deals with T1, M-phase inducer phosphatase 1 (Homo sapiens, UniProt P30304).
T1 sequence (P30304 whole entry): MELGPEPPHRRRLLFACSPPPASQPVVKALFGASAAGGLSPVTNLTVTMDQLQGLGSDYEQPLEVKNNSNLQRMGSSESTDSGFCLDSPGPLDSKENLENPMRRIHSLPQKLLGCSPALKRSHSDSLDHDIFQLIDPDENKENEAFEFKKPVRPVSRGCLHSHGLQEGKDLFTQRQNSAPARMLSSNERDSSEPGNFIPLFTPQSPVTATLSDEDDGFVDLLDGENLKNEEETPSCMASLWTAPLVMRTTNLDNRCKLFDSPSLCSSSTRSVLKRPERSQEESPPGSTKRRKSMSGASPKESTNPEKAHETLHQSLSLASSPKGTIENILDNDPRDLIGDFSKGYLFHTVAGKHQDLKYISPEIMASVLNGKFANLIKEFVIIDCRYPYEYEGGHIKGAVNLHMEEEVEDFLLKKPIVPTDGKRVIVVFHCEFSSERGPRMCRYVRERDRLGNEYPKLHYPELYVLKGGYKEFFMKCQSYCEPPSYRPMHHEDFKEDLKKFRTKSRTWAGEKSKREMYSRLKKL
Briefly: Concentration required for the inhibitory activity against human Cell division cycle 25A.

The next experiment has as its system SBC-5. The experiment is described as follows: Inhibitory concentration required for antitumor activity against SBC-5 cells. The conditions noted are these: Homo sapiens. It counts as functional, cell-based.

For orientation: IC50 means the concentration that inhibits the measured activity by half. Lower therefore signals greater potency. For `COC(=O)/C=C1\CCC[C@@]2(C)C1CC[C@@H]2[C@H](C)CCCC(C)C` (some centres not stated), the IC50 was above 300 µM in experiment [1] and 71 µM in the experiment on SBC-5.

Turning to `CC(C)CCC[C@@H](C)[C@H]1CCC2C(CCCC(=O)O)CCC[C@@]21C` (some centres not stated), the concentration for half-maximal inhibition (IC50) in experiment [1] is 9 µM; in the experiment on SBC-5, above 100 µM.

`CC(C)CCC[C@@H](C)[C@H]1CCC2/C(=C/C=C/C(=O)O)CCC[C@@]21C` (some centres not stated): the figures for the half-maximal inhibitory concentration (IC50) (in experiment [1]; with SBC-5) were 94 µM and 42 µM, respectively.

For the molecule `CC(C)CCC[C@@H](C)[C@H]1CCC2C(CC(=O)O)CCC[C@@]21C` (some centres not stated), the 50% inhibitory concentration (IC50) in experiment [1] is 32 µM; in the experiment on SBC-5, above 100 µM.

For `CC(C)CCC[C@@H](C)[C@H]1CCC2/C(=C/C(=O)O)CCC[C@@]21C` (some centres not stated), the half-maximal inhibitory concentration (IC50) in experiment [1] was 7.7 µM; with SBC-5 it was 47 µM.

As for `COC(=O)CC1CCC[C@@]2(C)C1CC[C@@H]2[C@H](C)CCCC(C)C` (some centres not stated), the IC50 in experiment [1] is above 300 µM; in the experiment with SBC-5 it was 70 µM.
